Experimental data: ChEMBL document CHEMBL3046223, “Compounds against inflammation and oxidative insult as potential agents for neurodegenerative disorders” (Med Chem Res, 2012)
pIC50: −log10 of the molar value. One block for each molecule: values may come before it.

Columns and labels:
Liver microsome [1] = assay: Antioxidant activity in Rattus norvegicus (rat) liver microsomal fraction assessed as inhibition of lipid peroxidation after 45 min by spectrophotometric analysis; format: functional, microsomes; conditions: 0.75 h
[2] = Drug uptake in Rattus norvegicus (rat) brain at 0.6 mmol/kg, ip after 60 min by RP-HPLC analysis; format: ADME, organism-based; conditions: read-out: Drug uptake
[3] = Drug uptake in Rattus norvegicus (rat) brain at 0.6 mmol/kg, ip after 120 min by RP-HPLC analysis; format: ADME, organism-based; conditions: read-out: Drug uptake
[4] = Drug uptake in Rattus norvegicus (rat) brain at 0.6 mmol/kg, ip after 30 min by RP-HPLC analysis; format: ADME, organism-based; conditions: read-out: Drug uptake
Rattus norvegicus [5] = assay: Anti-inflammatory activity in Rattus norvegicus Fischer-344 (rat) assessed as inhibition of carrageenan-induced paw oedema at 0.30 mmol/kg, ip administered 5 min before […] measured after 3 hr relative to control; format: functional; conditions: Fischer-344, ip
[6] = molecular target: T1, Seed linoleate 13S-lipoxygenase-1 (Glycine max, UniProt P08170); assay: Inhibition of Glycine max (soybean) lipoxygenase assessed as formation of 13-hydroperoxylinoleic acid using sodium linoleate as substrate after 7 min
T1 sequence (P08170 whole entry): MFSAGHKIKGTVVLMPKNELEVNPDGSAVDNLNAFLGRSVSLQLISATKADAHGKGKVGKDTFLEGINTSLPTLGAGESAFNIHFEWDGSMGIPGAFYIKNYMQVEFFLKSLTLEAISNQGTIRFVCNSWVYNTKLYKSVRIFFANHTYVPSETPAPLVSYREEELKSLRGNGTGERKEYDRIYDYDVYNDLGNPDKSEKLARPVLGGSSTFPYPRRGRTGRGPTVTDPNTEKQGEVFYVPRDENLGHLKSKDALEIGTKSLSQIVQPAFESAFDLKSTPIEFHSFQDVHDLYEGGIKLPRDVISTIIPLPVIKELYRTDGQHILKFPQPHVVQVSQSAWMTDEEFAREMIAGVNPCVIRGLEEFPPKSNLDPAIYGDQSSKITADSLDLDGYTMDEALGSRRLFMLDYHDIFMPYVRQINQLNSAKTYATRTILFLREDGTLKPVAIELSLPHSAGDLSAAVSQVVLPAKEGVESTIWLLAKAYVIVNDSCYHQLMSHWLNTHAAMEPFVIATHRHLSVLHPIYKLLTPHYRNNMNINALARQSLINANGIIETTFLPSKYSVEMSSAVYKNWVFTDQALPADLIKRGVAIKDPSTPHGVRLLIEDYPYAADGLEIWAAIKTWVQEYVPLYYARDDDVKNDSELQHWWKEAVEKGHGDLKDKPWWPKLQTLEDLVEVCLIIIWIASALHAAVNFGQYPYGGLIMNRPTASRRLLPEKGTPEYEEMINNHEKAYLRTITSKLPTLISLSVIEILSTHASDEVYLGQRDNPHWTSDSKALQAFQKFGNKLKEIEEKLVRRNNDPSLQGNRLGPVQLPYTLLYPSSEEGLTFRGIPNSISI

[7] = molecular target: T2, Prostaglandin G/H synthase 1 (Ovis aries) (UniProt P05979); assay: Inhibition of Ovis aries (sheep) COX1 assessed as formation of PGF2a at 200 uM by enzyme immunoassay
T2 sequence (whole entry): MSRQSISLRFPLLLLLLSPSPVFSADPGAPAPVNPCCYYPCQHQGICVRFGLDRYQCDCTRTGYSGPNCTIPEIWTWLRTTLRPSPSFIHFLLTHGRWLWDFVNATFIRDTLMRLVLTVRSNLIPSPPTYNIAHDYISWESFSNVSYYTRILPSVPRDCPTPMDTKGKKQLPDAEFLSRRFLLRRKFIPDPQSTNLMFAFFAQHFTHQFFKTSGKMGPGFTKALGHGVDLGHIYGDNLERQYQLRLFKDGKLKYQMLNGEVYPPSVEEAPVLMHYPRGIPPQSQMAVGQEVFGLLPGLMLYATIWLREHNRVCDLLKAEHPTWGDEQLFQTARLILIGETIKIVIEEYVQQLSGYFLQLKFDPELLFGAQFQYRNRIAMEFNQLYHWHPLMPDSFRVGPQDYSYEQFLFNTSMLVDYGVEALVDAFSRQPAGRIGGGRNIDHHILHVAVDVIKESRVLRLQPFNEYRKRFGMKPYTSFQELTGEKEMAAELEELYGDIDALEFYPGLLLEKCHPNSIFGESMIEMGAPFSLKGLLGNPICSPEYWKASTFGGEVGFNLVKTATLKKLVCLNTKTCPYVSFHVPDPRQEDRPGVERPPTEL

Mus musculus [8] = assay: Anti-inflammatory activity in Balb-C Mus musculus (mouse) assessed as inhibition of FCA-induced paw oedema at 0.30 mmol/kg, ip administered 5 min before FCA challenge measured after 3 hr relative to control; format: functional
[9] = Ratio of drug level in brain to blood in Rattus norvegicus (rat) at 0.6 mmol/kg, ip after 2 hr by RP-HPLC analysis; format: ADME, organism-based
[10] = Ratio of drug level in brain to blood in Rattus norvegicus (rat) at 0.6 mmol/kg, ip after 3 hr by RP-HPLC analysis; format: ADME, organism-based
Rattus norvegicus [11] = assay: Toxicity in rat assessed as body weight change per 100 gram body weight at 84 umol/kg, sc qd for 4 days; format: organism-based; conditions: in vivo, 96 h
Mus musculus [12] = assay: Anti-inflammatory activity in Balb-C Mus musculus (mouse) assessed as inhibition of FCA-induced paw oedema at 0.15 mmol/kg, ip administered 5 min before FCA challenge measured after 3 hr relative to control; format: functional
Rattus norvegicus [13] = assay: Gastrointestinal toxicity in Rattus norvegicus (rat) assessed as perforating ulcers at 84 umol/kg, sc qd for 4 days; format: organism-based; conditions: in vivo, 96 h
Rattus norvegicus [14] = assay: Gastrointestinal toxicity in Rattus norvegicus (rat) assessed as incidence of melena at 84 umol/kg, sc qd for 4 days; format: organism-based; conditions: in vivo, 96 h
[15] = Toxicity in Rattus norvegicus (rat) assessed as mortality at 84 umol/kg, sc qd for 4 days; format: organism-based; conditions: in vivo
Liver microsome [16] = assay: Antioxidant activity in Rattus norvegicus (rat) liver microsomal fraction assessed as inhibition of lipid peroxidation at 1 mM after 45 min by spectrophotometric analysis; format: functional, microsomes
Rattus norvegicus [17] = assay: Gastrointestinal toxicity in Rattus norvegicus (rat) assessed as incidence of melena at 200 umol/kg, sc qd for 4 days; format: organism-based; conditions: in vivo, 96 h
Rattus norvegicus [18] = assay: Toxicity in Rattus norvegicus (rat) assessed as body weight change per 100 gram body weight at 200 umol/kg, sc qd for 4 days; format: organism-based; conditions: in vivo, 96 h
[19] = Toxicity in Rattus norvegicus (rat) assessed as mortality at 200 umol/kg, sc qd for 4 days; format: organism-based; conditions: in vivo
Rattus norvegicus [20] = assay: Gastrointestinal toxicity in Rattus norvegicus (rat) assessed as perforating ulcers at 200 umol/kg, sc qd for 4 days; format: organism-based; conditions: in vivo, 96 h
Rattus norvegicus [21] = assay: Anti-inflammatory activity in Rattus norvegicus (rat) ischemia-reperfusion model assessed as reduction of malondialdehyde formation in brain at 0.4 mmol/kg, ip qd for 4 days and dose repeated 2 hr before initiation of ischemia measured 90 min after reperfusion; format: functional

pIC50 (Liver microsome [1]): 5.10
Compound: CCOC(=O)C(CS)NC(=O)C1CCCCN1C(=O)Cc1c(C)[nH]c2ccc(OC)cc12 (stereo unspecified)

concentration at 1 h [2]: 40800 ng/g | concentration at 2 h [3]: 27800 ng/g | concentration at 0.5 h [4]: 1590 ng/g
Compound: CCOC(=O)C(CS)NC(=O)C1CCCN1C(=O)C(C)c1ccc(CC(C)C)cc1 (stereo unspecified)

pIC50 [6]: 4.35
Compound: CC(C)Cc1ccc(C(C)C(=O)OCCCc2cccnc2)cc1 (stereo unspecified)
inhibition in vivo at 300 µmol/kg (Mus musculus [8]): 59%

concentration at 1 h [2]: 5700 ng/g | concentration at 2 h [3]: 710 ng/g | concentration at 0.5 h [4]: 26600 ng/g | Kp at 2 h [9]: 0.04 | Kp at 3 h [10]: 0.004
Compound: COc1ccc2cc([C@H](C)C(=O)N3CC(O)CC3C(=O)NCCS)ccc2c1 (stereo partly specified)

pIC50 [6]: 3.62
Compound: CC(C)Cc1ccc(C(C)C(=O)N2CCCC2C(=O)OCCO[N+](=O)[O-])cc1 (stereo unspecified)
inhibition in vivo at 300 µmol/kg (Mus musculus [8]): 62% | inhibition (Liver microsome [16]): 14%

inhibition [7]: 16%
Compound: COc1ccc2cc(C(C)C(=O)N3CCCC3C(=O)Oc3ccc(C)cc3OC)ccc2c1 (stereo unspecified)
inhibition in vivo at 300 µmol/kg (Rattus norvegicus [5]): 20%

pIC50 [6]: 3.49
Compound: CC(C)Cc1ccc(C(C)C(=O)N2CCCC2C(=O)OCCO)cc1 (stereo unspecified)
inhibition in vivo at 300 µmol/kg (Mus musculus [8]): 24%

concentration at 1 h [2]: 10200 ng/g | concentration at 2 h [3]: 35200 ng/g | concentration at 0.5 h [4]: 9780 ng/g
Compound: CC(C)Cc1ccc(C(C)C(=O)N2CCCC2C(=O)NCCS)cc1 (stereo unspecified)

pIC50 [6]: 4.22
Compound: COc1cc(C)ccc1OC(=O)C1CCCN1C(=O)C(C)c1cccc(C(=O)c2ccccc2)c1 (stereo unspecified)
inhibition in vivo at 300 µmol/kg (Rattus norvegicus [5]): 13%

pIC50 (Liver microsome [1]): 3.41
Compound: CCOC(=O)C(CS)NC(=O)C1CCCN1C(=O)Cc1c(C)n(C(=O)c2ccc(Cl)cc2)c2ccc(OC)cc12 (stereo unspecified)
inhibition in vivo at 300 µmol/kg (Mus musculus [8]): 44% | inhibition in vivo at 150 µmol/kg (Mus musculus [12]): 25% | Activity (Rattus norvegicus [21]): 3 nmol/mg

pIC50 [6]: 4.34
Compound: COc1ccc2cc(C(C)C(=O)N3CCCC3C(=O)OCCCc3cccnc3)ccc2c1 (stereo unspecified)
inhibition in vivo at 300 µmol/kg (Rattus norvegicus [5]): 24%

pIC50 [6]: 4.22
Compound: CC(C)Cc1ccc(C(C)C(=O)N2CCCC2C(=O)OCCCc2ccccc2)cc1 (stereo unspecified)
inhibition in vivo at 300 µmol/kg (Mus musculus [8]): 31%

pIC50 [6]: 4.19
Compound: COc1cc(C)ccc1OC(=O)C(C)c1ccc(CC(C)C)cc1 (stereo unspecified)
inhibition in vivo at 300 µmol/kg (Mus musculus [8]): 43%

pIC50 (Liver microsome [1]): 3.36 | pIC50 [6]: 3.77
Compound: CCOC(=O)C(CS)NC(=O)C1CCCN1C(=O)C(C)c1cccc(C(=O)c2ccccc2)c1 (stereo unspecified)
inhibition in vivo at 300 µmol/kg (Rattus norvegicus [5]): 52%

Continued, molecule first:

Compound: COc1ccc2cc(C(C)C(=O)OCCCc3cccnc3)ccc2c1 (stereo unspecified)
inhibition in vivo at 300 µmol/kg (Rattus norvegicus [5]): 27% | pIC50 [6]: 4.55 | inhibition [7]: 71%

Compound: CC(C)Cc1ccc([C@H](C)C(=O)O)cc1 [DEXIBUPROFEN]
inhibition in vivo at 300 µmol/kg (Mus musculus [8]): 53%

Compound: COc1ccc2c(c1)c(CC(=O)O)c(C)n2C(=O)c1ccc(Cl)cc1 [INDOMETHACIN]
Activity (Rattus norvegicus [11]): -15 g | inhibition in vivo at 150 µmol/kg (Mus musculus [12]): 68% | Activity (Rattus norvegicus [13]): 80% | Activity (Rattus norvegicus [14]): 100% | mortality at 96 h [15]: 50%

Compound: COc1ccc2c(c1)c(CC(=O)N1CCCC1C(=O)Oc1ccc(C)cc1OC)c(C)n2C(=O)c1ccc(Cl)cc1 (stereo unspecified)
Activity (Rattus norvegicus [11]): 11 g | inhibition in vivo at 300 µmol/kg (Mus musculus [8]): 54% | inhibition in vivo at 150 µmol/kg (Mus musculus [12]): 49% | Activity (Rattus norvegicus [13]): 0% | inhibition [7]: 16% | Activity (Rattus norvegicus [14]): 0% | mortality at 96 h [15]: 0%

Compound: COc1ccc2cc(C(C)C(=O)Oc3ccc(C)cc3OC)ccc2c1 (stereo unspecified)
inhibition in vivo at 300 µmol/kg (Rattus norvegicus [5]): 40% | pIC50 [6]: 4.05

Compound: COc1ccc2cc([C@H](C)C(=O)O)ccc2c1 [NAPROXEN]
inhibition in vivo at 300 µmol/kg (Rattus norvegicus [5]): 51% | inhibition [7]: 52%

Compound: C[C@H](C(=O)O)c1cccc(C(=O)c2ccccc2)c1 [DEXKETOPROFEN]
inhibition in vivo at 300 µmol/kg (Rattus norvegicus [5]): 42%

Compound: CC(C(=O)O)c1cccc(C(=O)c2ccccc2)c1 (stereo unspecified) [KETOPROFEN]
Activity (Rattus norvegicus [17]): 100% | Activity (Rattus norvegicus [18]): -24 g | inhibition [7]: 86% | mortality at 96 h [19]: 50% | Activity (Rattus norvegicus [20]): 85%

Compound: CC(C(=O)NCCS)c1cccc(C(=O)c2ccccc2)c1 (stereo unspecified)
pIC50 (Liver microsome [1]): 3.19 | inhibition in vivo at 300 µmol/kg (Rattus norvegicus [5]): 39%

Compound: CC(C(=O)OCCCc1cccnc1)c1cccc(C(=O)c2ccccc2)c1 (stereo unspecified)
inhibition in vivo at 300 µmol/kg (Rattus norvegicus [5]): 61% | Activity (Rattus norvegicus [17]): 60% | Activity (Rattus norvegicus [18]): -13 g | pIC50 [6]: 3.84 | inhibition [7]: 87% | mortality at 96 h [19]: 33% | Activity (Rattus norvegicus [20]): 50%
